Measured values: patent US12729377B2, “RNAi agents and compositions for inhibiting expression of angiopoietin-like 3 (ANGPTL3), and methods of use” (Arrowhead Pharmaceuticals, Inc., priority 2017, dated 2026)
In the oligonucleotide strings, read from the 5' end, every base follows the letter of its sugar. An asterisk marks phosphorothioate; unmarked linkages are phosphodiester. Other units and linkages are bracketed, terminal groups are in braces. A string of capitals states the bases alone. {NAG37} = tridentate N-acetyl-galactosamine targeting ligand, structure (NAG37)s; [invAb] = inverted abasic unit; m = 2'-O-methyl; f = 2'-fluoro

Key:
ANGPTL3 gene [1] = experiment: Example 11: dose response, serum HDL in mice; assay type: in vivo, C57bl/6 mice
Experimental: (§1) To assess the dose response of ANGPTL3 RNAi agent AD05488, six- to eight-week-old female C57bl/6 mice were used. Pre-dose serum samples were taken at day −1 after a four hour fast. At day 1, each mouse was given a single subcutaneous administration of 200 μl containing the respective mg/kg dose of an ANGPTL3 RNAi agent in D5W (dextrose in 5% water), or control (D5W) with no RNAi agent, according to the dosing groups recited in Table 53:
(§2) The RNAi agent tested (AD05488) included a modified sequence and an N-acetyl-galactosamine-containing targeting ligand conjugated to the 5′ terminal end of the sense strand. (See Tables 3, 4, and 5 for modified sequences and targeting ligand structures). The injections were performed between the skin and muscle (i.e. subcutaneous injections) into the loose skin over the neck and shoulder area. Four (4) mice in each group were tested (n=4). Serum was collected on days 8, 15, 22, and 29. Mice were fasted for four hours prior to each collection. ANGPTL3 protein levels in serum were measured by ELISA assay (R&D Systems), according to the manufacturer's recommendations. Triglycerides, total cholesterol, high-density lipoprotein (HDL), and low-density lipoprotein (LDL) in serum were measured on a Cobas® Integra 400 (Roche Diagnostics), according to the manufacturer's recommendations.
(§3) The ANGPTL3 protein levels, triglyceride levels, total cholesterol levels, HDL levels, and LDL levels for each animal were normalized. For normalization, the level of ANGPTL3 protein, triglyceride, HDL, and total cholesterol, respectively, for each animal at a time point, was divided by the pre-treatment level of expression in that animal (in this case at day −1) to determine the ratio of expression “normalized to pre-treatment.” Expression at a specific time point was then normalized to the D5W control group by dividing the “normalized to pre-treatment” ratio for an individual animal by the mean “normalized to pretreatment” ratio of all mice in the D5W control group.

ANGPTL3 gene [2] = experiment: Example 11: dose response, serum triglycerides in mice; assay type: in vivo, C57bl/6 mice
Experimental: as §1, §2, §3

[3] = 0.05 mg/kg single sc day 1, Day 8
[4] = 0.05 mg/kg single sc day 1, Day 15
[5] = 0.05 mg/kg single sc day 1, Day 22
[6] = 0.05 mg/kg single sc day 1, Day 29
[7] = 0.1 mg/kg single sc day 1, Day 8
[8] = 0.1 mg/kg single sc day 1, Day 15
[9] = 0.1 mg/kg single sc day 1, Day 22
[10] = 0.1 mg/kg single sc day 1, Day 29
[11] = 0.5 mg/kg single sc day 1, Day 8
[12] = 0.5 mg/kg single sc day 1, Day 15
[13] = 0.5 mg/kg single sc day 1, Day 22
[14] = 0.5 mg/kg single sc day 1, Day 29
[15] = 1.0 mg/kg single sc day 1, Day 8
[16] = 1.0 mg/kg single sc day 1, Day 15
[17] = 1.0 mg/kg single sc day 1, Day 22
[18] = 1.0 mg/kg single sc day 1, Day 29
[19] = 2.5 mg/kg single sc day 1, Day 8
[20] = 2.5 mg/kg single sc day 1, Day 15
[21] = 2.5 mg/kg single sc day 1, Day 22
[22] = 2.5 mg/kg single sc day 1, Day 29
[23] = 5.0 mg/kg single sc day 1, Day 8
[24] = 5.0 mg/kg single sc day 1, Day 15
[25] = 5.0 mg/kg single sc day 1, Day 22
[26] = 5.0 mg/kg single sc day 1, Day 29

AD05488: RNAi agent duplex: antisense AM07235-AS, sense AM07234-SS (antisense mU*fA*mC*fUmGfAmUfCmAfAmAfUmAfUmGfUmUfGmAfG*mC; sense {NAG37}*[invAb]*mGmCmUmCmAmAmCmAfUfAfUmUmUmGmAmUmCmAmGmUmA*[invAb])
Avg HDL Normalized to Pre-Treatment and Control (ANGPTL3 gene [1]; [3]): 0.851
Avg HDL Normalized to Pre-Treatment and Control (ANGPTL3 gene [1]; [4]): 1.052
Avg HDL Normalized to Pre-Treatment and Control (ANGPTL3 gene [1]; [5]): 0.982
Avg HDL Normalized to Pre-Treatment and Control (ANGPTL3 gene [1]; [6]): 0.894
Avg HDL Normalized to Pre-Treatment and Control (ANGPTL3 gene [1]; [7]): 0.807
Avg HDL Normalized to Pre-Treatment and Control (ANGPTL3 gene [1]; [8]): 0.950
Avg HDL Normalized to Pre-Treatment and Control (ANGPTL3 gene [1]; [9]): 0.806
Avg HDL Normalized to Pre-Treatment and Control (ANGPTL3 gene [1]; [10]): 0.910
Avg HDL Normalized to Pre-Treatment and Control (ANGPTL3 gene [1]; [11]): 0.727
Avg HDL Normalized to Pre-Treatment and Control (ANGPTL3 gene [1]; [12]): 0.876
Avg HDL Normalized to Pre-Treatment and Control (ANGPTL3 gene [1]; [13]): 0.906
Avg HDL Normalized to Pre-Treatment and Control (ANGPTL3 gene [1]; [14]): 0.897
Avg HDL Normalized to Pre-Treatment and Control (ANGPTL3 gene [1]; [15]): 0.575
Avg HDL Normalized to Pre-Treatment and Control (ANGPTL3 gene [1]; [16]): 0.785
Avg HDL Normalized to Pre-Treatment and Control (ANGPTL3 gene [1]; [17]): 0.839
Avg HDL Normalized to Pre-Treatment and Control (ANGPTL3 gene [1]; [18]): 0.888
Avg HDL Normalized to Pre-Treatment and Control (ANGPTL3 gene [1]; [19]): 0.618
Avg HDL Normalized to Pre-Treatment and Control (ANGPTL3 gene [1]; [20]): 0.787
Avg HDL Normalized to Pre-Treatment and Control (ANGPTL3 gene [1]; [21]): 0.782
Avg HDL Normalized to Pre-Treatment and Control (ANGPTL3 gene [1]; [22]): 0.701
Avg HDL Normalized to Pre-Treatment and Control (ANGPTL3 gene [1]; [23]): 0.534
Avg HDL Normalized to Pre-Treatment and Control (ANGPTL3 gene [1]; [24]): 0.717
Avg HDL Normalized to Pre-Treatment and Control (ANGPTL3 gene [1]; [25]): 0.760
Avg HDL Normalized to Pre-Treatment and Control (ANGPTL3 gene [1]; [26]): 0.759
Avg TG (Triglycerides) Normalized to Pre-Treatment and Control (ANGPTL3 gene [2]; [3]): 1.296
Avg TG (Triglycerides) Normalized to Pre-Treatment and Control (ANGPTL3 gene [2]; [4]): 1.274
Avg TG (Triglycerides) Normalized to Pre-Treatment and Control (ANGPTL3 gene [2]; [5]): 1.202
Avg TG (Triglycerides) Normalized to Pre-Treatment and Control (ANGPTL3 gene [2]; [6]): 1.999
Avg TG (Triglycerides) Normalized to Pre-Treatment and Control (ANGPTL3 gene [2]; [7]): 1.116
Avg TG (Triglycerides) Normalized to Pre-Treatment and Control (ANGPTL3 gene [2]; [8]): 1.141
Avg TG (Triglycerides) Normalized to Pre-Treatment and Control (ANGPTL3 gene [2]; [9]): 1.234
Avg TG (Triglycerides) Normalized to Pre-Treatment and Control (ANGPTL3 gene [2]; [10]): 1.798
Avg TG (Triglycerides) Normalized to Pre-Treatment and Control (ANGPTL3 gene [2]; [11]): 1.028
Avg TG (Triglycerides) Normalized to Pre-Treatment and Control (ANGPTL3 gene [2]; [12]): 1.027
Avg TG (Triglycerides) Normalized to Pre-Treatment and Control (ANGPTL3 gene [2]; [13]): 0.864
Avg TG (Triglycerides) Normalized to Pre-Treatment and Control (ANGPTL3 gene [2]; [14]): 1.855
Avg TG (Triglycerides) Normalized to Pre-Treatment and Control (ANGPTL3 gene [2]; [15]): 0.860
Avg TG (Triglycerides) Normalized to Pre-Treatment and Control (ANGPTL3 gene [2]; [16]): 0.755
Avg TG (Triglycerides) Normalized to Pre-Treatment and Control (ANGPTL3 gene [2]; [17]): 0.720
Avg TG (Triglycerides) Normalized to Pre-Treatment and Control (ANGPTL3 gene [2]; [18]): 1.254
Avg TG (Triglycerides) Normalized to Pre-Treatment and Control (ANGPTL3 gene [2]; [19]): 0.623
Avg TG (Triglycerides) Normalized to Pre-Treatment and Control (ANGPTL3 gene [2]; [20]): 0.556
Avg TG (Triglycerides) Normalized to Pre-Treatment and Control (ANGPTL3 gene [2]; [21]): 0.447
Avg TG (Triglycerides) Normalized to Pre-Treatment and Control (ANGPTL3 gene [2]; [22]): 0.772
Avg TG (Triglycerides) Normalized to Pre-Treatment and Control (ANGPTL3 gene [2]; [23]): 0.923
Avg TG (Triglycerides) Normalized to Pre-Treatment and Control (ANGPTL3 gene [2]; [24]): 0.892
Avg TG (Triglycerides) Normalized to Pre-Treatment and Control (ANGPTL3 gene [2]; [25]): 0.781
Avg TG (Triglycerides) Normalized to Pre-Treatment and Control (ANGPTL3 gene [2]; [26]): 1.128
